The results in this text go back to patent US12240844B2 (Voronoi, Inc., priority 2019, dated 2025).

In general, IC50 refers to the concentration needed to halve the response being measured. Broadly, the GI50 is the concentration at which growth is held to half of that of the control. A lower GI50 goes with greater sensitivity of the cells.

Experiment [1] has as its target T1, human GST-DYRK1A (full length) (Homo sapiens, UniProt Q13627).
T1 construct: purified human GST-DYRK1A (full length, Thermo scientifics) enzyme; GST; purchased Thermo scientifics
In words: GST-DYRK1A enzyme inhibition, ADP-Glo kinase assay. The class given is biochemical. Conditions: read-out: DYRK1 IC50. Summed up: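 ADP-Glo luminescence quantified kinase activity after a 1 h, 25° C reaction of 10 ng full-length GST-tagged human DYRK1A, substrate and 10 uM ATP in Tris-HCl buffer pH 7.4 with MgCl2, BSA and DTT. Triplicate IC50 values (nM) calculated relative to untreated solvent control.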
A general note: ADP-Glo first removes unused ATP, then detects ADP through luciferase.

The target in experiment [2] is T2, human GST-CLK1 (129-end) (Homo sapiens, UniProt P49759).
T2 construct: purified human GST-CLK1 (129-end, Signalchem) enzyme; GST; purchased Signalchem
T2 sequence (P49759 129-484 limits assumed): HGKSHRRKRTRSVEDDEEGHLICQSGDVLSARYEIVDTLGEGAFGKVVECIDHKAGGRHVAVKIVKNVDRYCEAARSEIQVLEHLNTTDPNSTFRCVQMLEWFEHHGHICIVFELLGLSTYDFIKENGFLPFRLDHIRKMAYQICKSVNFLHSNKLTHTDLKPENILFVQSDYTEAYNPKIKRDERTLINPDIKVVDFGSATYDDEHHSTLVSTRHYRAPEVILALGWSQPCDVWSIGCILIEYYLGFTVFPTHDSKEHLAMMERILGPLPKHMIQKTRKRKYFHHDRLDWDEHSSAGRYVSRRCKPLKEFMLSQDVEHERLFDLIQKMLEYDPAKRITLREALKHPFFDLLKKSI
In words: GST-CLK1 enzyme inhibition, ADP-Glo kinase assay. To be noted: ATP 10 uM. The format is biochemical. Summed up:
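ADP formation was read by ADP-Glo luminescence after 1 h at 25° C with 3 ng human GST-CLK1 (129-end), substrate and 10 uM ATP in Tris pH 7.4 buffer containing MgCl2, BSA and DTT. Inhibition relative to untreated solvent control gave IC50 (nM), run in triplicate.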

For experiment [3], the system named is MDA-MB-468 cell line. Kind of experiment: MDA-MB-468 cancer cell proliferation inhibition (Cell Titer-Glo). The class given is cell-based. To be noted: Homo sapiens, MDA-MB-468 triple-negative breast cancer cell line, 72 hours. The method, then:
In order to evaluate the cancer cell proliferation inhibitory activity of the compounds of the present invention, the following experiments were performed.
To evaluate the cancer cell proliferation inhibitory effect, the cell growth rate analysis was performed while culturing MDA-MB-231 cell line (Korean Cell Line Bank #30026) and MDA-MB-468 cell line as the triple-negative breast cancer cell line, and SHP-77 (ATCC #CRL-2195) as the small cell lung cancer cell line in DMEM (HyClone #SH30243) and RPMI medium (HyClone #SH3027.01), respectively. More specifically, the cell lines were each plated at 2000 cells/100 μl in each well of a 96-well flat-bottom plate (coming #3903), and then the example compounds having eleven concentrations which were diluted by ⅓ so that the final concentrations were 10.000000, 3.333333, 1.111111, 0.370370, 0.123457, 0.041152, 0.013717, 0.004572, 0.001524, 0.000508 and 0.000169 μM were treated. After 72 hours, 100 μl of Cell Titer-Glo (Promega G7573) was treated, incubated at RT for 10 minutes, and then luminescence was measured using a microplate reader. The measured luminescence degree was calculated as GI50 using Prism (version 8.2 GraphPad) software.
In the table below, the following designations were used for the evaluation of proliferation inhibitory activity.
(In general: Cellular ATP, detected with luciferase, serves as a proxy for viable cell number.)

Experiment [4] has as its target LRRK2 (Homo sapiens, UniProt Q5S007). Kind of experiment: LRRK2 enzyme inhibition, ADP-Glo kinase assay. The class given is biochemical. Also noted: purchased Invitrogen PR8604B. Summed up: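 ADP-Glo luminescence read after 2 h at 25° C, 10 μM ATP, 25 ng purified human LRRK2 and […] substrate in Tris-HCl pH7.4 buffer with MgCl2, BSA, DTT. Twelve final concentrations, 50 μM down to 0.000001024 μM; IC50 (nM) from inhibition relative to untreated solvent control.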

The target in experiment [5] is LRRK2 (G2019S) (Homo sapiens, UniProt Q5S007, G2019S). Kind of experiment: LRRK2 G2019S enzyme inhibition, ADP-Glo kinase assay. Also noted: purchased SignalChem L10-12GG. The class given is biochemical. An outline of the steps:
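Activity read as ADP-Glo luminescence, normalized to untreated solvent control, with IC50 (nM) fitted over 12 final compound levels (top 50 μM). Reaction: 2 h, 25° C, human LRRK2 G2019S 16 ng, ATP 25 μM, substrate 0.2 μg, in Tris-HCl pH 7.4 with MgCl2, BSA and DTT.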

Experiment [6] deals with MDA-MB-231 cell line. Kind of experiment: MDA-MB-231 cancer cell proliferation inhibition (Cell Titer-Glo). The class given is cell-based. Conditions: Homo sapiens, MDA-MB-231 triple-negative breast cancer cell line, 72 hours. Summed up:
(§1)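 GI50 comes from CellTiter-Glo luminescence, read 10 min after reagent addition at RT, following 72 h compound treatment. Eleven concentrations were used (⅓ steps, highest 10 μM final) on 2000 cells/well. MDA-MB-231 and MDA-MB-468 were grown in DMEM, SHP-77 in RPMI.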

Experiment [7] concerns SHP-77. In words: SHP-77 cancer cell proliferation inhibition (Cell Titer-Glo). The class given is cell-based. To be noted: Homo sapiens, SHP77, SHP-77 small cell lung cancer cell line, 72 hours. An outline of the steps: as §1
The subject of experiment [8] is IL-6. In words: IL-6 secretion inhibition in LPS-treated THP-1 cells (ELISA). The class given is cell-based. To be noted: Homo sapiens, compound 0.5 μM, LPS 500 ng/ml, 24 hours, read-out: THP1/IL6 (% inhib). The method, then:
(§2) In order to evaluate the cytokine secretion inhibitory efficacy of mononuclear cells, THP-1 cells (ATCC, #TIB-202) as a human-derived monocyte cell line were cultured in RPMI-1640 (Hyclone, SH30027.01) media in which 10% fetal bovine serum (Hyclone, SH30084.03), 1% penicillin streptomycin (Welgene, LS202-02) and 50 μM 2-Mercaptoethanol (Gibco, #21985023) were contained. In the test, 1.5-2×10^5 cells/250 μl per each well were dispensed in a 48-well plate (SPL, #30048) and incubated in an incubator at 37° C. and 5% CO2 for 16 hours, and then the compounds were diluted in DMSO so that the final concentration was 0.5 μM. It was treated with Lipopolysaccharides (LPS) (sigma, #L6529) […]. After treatment with the compound, the LPS was treated so that the final concentration was 500 ng/ml, and then the cell culture fluid was collected after culturing for 24 hours, and the degrees of the cytokines IL-6 (R&D system, #D6050) and TNF-α (R&D system, #DTA00D) contained in the culture fluid were collected using each ELISA kit. After performing the experiment according to the manufacturer's instructions, the absorbance at 450 nm was measured and analyzed using a microplate reader.
For orientation: An ELISA detects its analyte on a solid surface through an enzyme-linked reagent.

The subject of experiment [9] is TNF-α. In words: TNF-α secretion inhibition in LPS-treated THP-1 cells (ELISA). The class given is cell-based. Conditions: Homo sapiens, compound 0.5 μM, LPS 500 ng/ml, 24 hours, read-out: THP-1/TNF-a (% inhib). The method, then: as §2
Experiment [10] has as its system THP-1. In words: THP-1 GI50 (Table 4, method not given). To be noted: Homo sapiens; THP-1 cells. The class given is cell-based.

Sequence of LRRK2 (Q5S007 970-2527 limits assumed): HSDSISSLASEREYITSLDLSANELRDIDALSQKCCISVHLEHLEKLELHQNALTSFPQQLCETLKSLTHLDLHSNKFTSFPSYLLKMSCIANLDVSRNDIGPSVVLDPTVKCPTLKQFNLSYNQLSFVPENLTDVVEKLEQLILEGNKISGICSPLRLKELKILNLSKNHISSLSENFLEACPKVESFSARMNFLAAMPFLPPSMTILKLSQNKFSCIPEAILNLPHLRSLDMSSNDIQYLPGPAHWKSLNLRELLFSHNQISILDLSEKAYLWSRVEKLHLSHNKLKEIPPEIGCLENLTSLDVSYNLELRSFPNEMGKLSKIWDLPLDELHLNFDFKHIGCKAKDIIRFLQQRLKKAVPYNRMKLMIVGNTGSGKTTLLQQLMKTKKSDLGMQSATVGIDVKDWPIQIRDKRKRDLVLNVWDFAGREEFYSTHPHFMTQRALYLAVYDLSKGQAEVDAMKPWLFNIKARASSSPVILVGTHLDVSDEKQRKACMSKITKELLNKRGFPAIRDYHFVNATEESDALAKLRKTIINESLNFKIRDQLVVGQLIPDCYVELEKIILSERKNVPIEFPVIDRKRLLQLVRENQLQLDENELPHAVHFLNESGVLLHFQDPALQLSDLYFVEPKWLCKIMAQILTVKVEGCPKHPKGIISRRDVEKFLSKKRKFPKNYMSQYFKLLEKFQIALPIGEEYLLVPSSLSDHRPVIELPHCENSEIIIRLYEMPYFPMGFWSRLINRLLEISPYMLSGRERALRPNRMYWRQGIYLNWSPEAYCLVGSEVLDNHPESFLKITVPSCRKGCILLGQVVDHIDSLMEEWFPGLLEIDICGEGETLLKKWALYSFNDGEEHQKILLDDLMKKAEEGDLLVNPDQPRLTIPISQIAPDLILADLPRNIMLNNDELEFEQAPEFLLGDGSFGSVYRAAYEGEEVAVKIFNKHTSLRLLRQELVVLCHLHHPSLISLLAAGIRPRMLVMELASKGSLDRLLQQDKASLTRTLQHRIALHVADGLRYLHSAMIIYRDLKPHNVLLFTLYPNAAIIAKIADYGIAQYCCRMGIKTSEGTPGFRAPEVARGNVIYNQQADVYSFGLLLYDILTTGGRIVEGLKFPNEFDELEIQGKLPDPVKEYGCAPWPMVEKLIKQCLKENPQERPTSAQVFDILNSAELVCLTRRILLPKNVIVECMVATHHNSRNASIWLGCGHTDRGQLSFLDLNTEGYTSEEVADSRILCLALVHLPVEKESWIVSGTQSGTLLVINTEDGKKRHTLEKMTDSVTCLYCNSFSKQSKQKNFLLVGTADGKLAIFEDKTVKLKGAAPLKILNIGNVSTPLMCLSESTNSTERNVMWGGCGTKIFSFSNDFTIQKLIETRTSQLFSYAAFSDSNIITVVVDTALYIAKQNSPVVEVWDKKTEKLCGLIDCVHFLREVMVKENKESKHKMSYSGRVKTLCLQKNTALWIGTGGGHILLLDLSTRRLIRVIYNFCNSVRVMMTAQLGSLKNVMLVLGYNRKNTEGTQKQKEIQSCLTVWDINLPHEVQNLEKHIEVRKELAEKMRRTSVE
Sequence of LRRK2 (G2019S) (Q5S007 970-2527 G2019S limits assumed): as the sequence (Q5S007 970-2527 limits assumed) above, with G1050S counted along it

On to `N#Cc1c[nH]c2nc(Nc3ccc(C(=O)N4CCOCC4)c4c3OCCO4)cc(NC3CCCC3)c12` [Example 112, 4-(cyclopentylamino)-6-((8-(morpholine-4-carbonyl)-2,3-dihydrobenzo[b] [1,4]dioxin-5-yl)amino)-1H-pyrrolo[2,3-b]pyridine-3-carbonitrile], for which the IC50 was 301 to 1000 nM in [1], 301 to 1000 nM in experiment [2], less than 100 nM in experiment [4] and less than 100 nM in [5]. For the same molecule, the GI50 in experiment [3] lay in the range of 51 to 100 nM.

As for `N#Cc1c[nH]c2nc(Nc3ccc(C(=O)N4CCC(N5CCOCC5)CC4)c4c3OCCO4)cc(NC3CCCCC3)c12` [Example 149, 4-(cyclohexylamino)-6-((8-(4-morpholinopiperidine-1-carbonyl)-2,3-dihydrobenzo [b] [1,4]dioxin-5-yl)amino)-1H-pyrrolo[2,3-b]pyridine-3-carbonitrile], the IC50 in experiment [1] and in experiment [2] was 301 to 1000 nM throughout. In [3], the GI50 is 101 to 300 nM.

Regarding `N#Cc1c[nH]c2nc(Nc3ccc(C(=O)N4CCOCC4)c4c3OCCO4)cc(NC3CCCCC3)c12` [Example 150, N^4-(cyclohexylamino)-N^6-((8-(morpholine-4-carbonyl)-2,3-dihydrobenzo [b] [1,4]dioxin-5-yl)amino)-1H-pyrrolo[2,3-b]pyridine-3-carbonitrile], the IC50 in experiment [1] and in [2] was 301 to 1000 nM each time. For the same molecule, the GI50 in experiment [3] was 51 to 100 nM.

Take `COc1cc(S(=O)(=O)N2CCC(N3CCOCC3)CC2)ccc1Nc1cc(NC2CCCCC2)c2c(C#N)c[nH]c2n1` [Example 151, N^4-(cyclohexylamino)-N^6-((2-methoxy-4-((4-morpholinopiperidin-1-yl)sulfonyl)phenyl)amino)-1H-pyrrolo[2,3-b]pyridine-3-carbonitrile]: the IC50 in experiment [1] and in [2] was 301 to 1000 nM in each case. The figures for the GI50 in experiment [3], in experiment [6] and in [7] were 101 to 300 nM, 51 to 100 nM and 51 to 100 nM, respectively.

As to `CNc1cc(Nc2ccc(C(=O)N3CCOCC3)c3c2OCCO3)nc2[nH]cc(C(F)(F)F)c12` [Example 152, (8-((4-(methylamino)-3-(trifluoromethyl)-1H-pyrrolo[2,3-b]pyridin-6-yl)amino)-2,3-dihydrobenzo [b] [1,4]dioxin-5-yl)(morpholino) methanone], the IC50 in experiment [1], in experiment [2], in experiment [4] and in experiment [5] was less than 100 nM in each case. Besides, in [3], the GI50 lay within 101 to 300 nM.

For `CCNc1cc(Nc2ccc(C(=O)N3CCOCC3)c3c2OCCO3)nc2[nH]cc(C(F)(F)F)c12` [Example 153, (8-((4-(ethylamino)-3-(trifluoromethyl)-1H-pyrrolo[2,3-b]pyridin-6-yl)amino)-2,3-dihydrobenzo[b] [1,4]dioxin-5-yl)(morpholino) methanone], the IC50 in experiment [1] is less than 100 nM; in experiment [2], less than 100 nM; in experiment [4], less than 100 nM; in experiment [5], 101 to 300 nM. Also, the inhibition at 0.5 µM came to 32.7% in experiment [8] and 40.4% in experiment [9]. In [10], the GI50 was found to be 14400 nM.
